Measurements from patent publication US20040142887A1, “Antigen-polymer compositions” (priority 2002, published 2004).
≈ marks a conversion by molar mass, not a printed value.

Key:
[1] = not given; remark: listed apart in the source

## CC[C@H](C)[C@H](NC(=O)CNC(=O)[C@@H](NC(=O)[C@H](Cc1ccccc1)NC(=O)[C@H](CCCCN)NC(=O)[C@H](CO)NC(=O)[C@H](CC(N)=O)NC(=O)[C@H](C)NC(=O)[C@H](CCCCN)NC(=O)[C@@H](NC(=O)[C@H](Cc1ccc(O)cc1)NC(=O)[C@H](CCC(N)=O)NC(=O)[C@@H](N)CS)[C@@H](C)CC)[C@@H](C)CC)C(=O)N[C@H](C(=O)N[C@@H](CCC(=O)O)C(=O)N[C@@H](CC(C)C)C(=O)N[C@@H](CC(=O)O)C(=O)N[C@@H](CC(=O)O)C(=O)N1CCC[C@H]1C(=O)N[C@@H](CCCNC(=N)N)C(=O)N[C@@H](Cc1ccccc1)C(=O)N[C@@H](CCC(N)=O)C(=O)N[C@@H](CC(=O)O)C(=O)N[C@@H](CO)C(=O)N[C@@H](CO)C(=O)N[C@@H](CO)C(=O)N[C@@H](CO)C(=O)N[C@@H](CCCCN)C(=O)N[C@@H](C)C(=O)N1CCC[C@H]1C(=O)N1CCC[C@H]1C(=O)N1CCC[C@H]1C(=O)N[C@@H](CO)C(=O)N[C@@H](CC(C)C)C(=O)N1CCC[C@H]1C(=O)N[C@@H](CO)C(=O)N1CCC[C@H]1C(=O)N[C@@H](CO)C(=O)N[C@@H](CCCNC(=N)N)C(=O)N[C@@H](CC(C)C)C(=O)N1CCC[C@H]1C(=O)NCC(=O)N1CCC[C@H]1C(=O)N[C@@H](CO)C(=O)N[C@@H](CC(=O)O)C(=O)N[C@H](C(=O)N1CCC[C@H]1C(=O)N[C@H](C(=O)N[C@@H](CC(C)C)C(=O)N1CCC[C@H]1C(=O)N[C@@H](CCC(N)=O)C(=O)O)[C@@H](C)CC)[C@@H](C)O)[C@@H](C)O [CTP37-TT2]
pH 1
  stability to hydrolysis in solution: stable to hydrolysis except when the pH was very low (1-2)
pH 1.4
  peptide remaining soluble at acidic pH: all peptides remained soluble
[1]
  solubility: ~70 mg/mL (≈ 12.8 mM)
